Experimental data from patent US20250236599A1, “LIPID NANOPARTICLES FOR OLIGONUCLEOTIDE DELIVERY” (ZIPHIUS NV, priority 2021, published 2025).

Assays:
[1] = LNP particle size, polydispersity index and charge by Zeta Sizer; format: physicochemical; settings: LNP lipid:DOPE:Cholesterol:DMG-PEG 35:20:43.5:1.5, firefly luciferase saRNA; for Polydispersity Index (PI) / Z-average (nm): N/P approx. 40/1
Procedure: Cationic lipids, DOPE, Cholesterol and DMG-PEG lipid were solubilized in ethanol or DMSO at a molar ratio of 35:20:43.5:1.5 and a concentration of 100:25:20:25 μg/μL for C12-200 or 170:25:20:25 μg/μL for the comparator lipids. Lipid nanoparticles (LNP) were prepared by targeting an N/P ratio of approximately 40/1 with saRNA. Briefly, the firefly luciferase saRNA of approximately 9659 nucleotides was diluted to 0.5 mg/mL in 5 mM citrate buffer, pH 4.5. Microfluidic mixer (Ignite from Precision Nanosystems, California, USA) was used to mix the lipid solution with the saRNA aqueous solution at a ratio of about 1:3 (vol/vol) with total flow rates above 10 ml/min. The ethanol was then removed, and the external buffer replaced with 10 mM TRIS-HCL, PH 7.4, by dialysis. Finally, the lipid nanoparticles were filtered through a 0.2 μm pore sterile filter. Lipid nanoparticle particle size was 50-150 nm diameter and polydispersity index (PI) of 0.1-0.4 as determined by Zeta Sizer (Malvern Panalytical, UK). The charge of the formulation was also measured by Zeta Sizer and ranged between 20 to −20 mV.

[2] = saRNA loading / encapsulation efficiency, Quant-IT RiboGreen assay; format: physicochemical; settings: LNP lipid:DOPE:Cholesterol:DMG-PEG 35:20:43.5:1.5, firefly luciferase saRNA
Procedure: The saRNA loading in LNP formulations was quantified using a Quant-IT RiboGreen assay (Thermo Fisher Scientific, Waltham, Massachusetts, USA) as previously described. 14 samples were diluted tenfold in 1x Tris HCL-EDTA (TE) buffer (10 mM Tris-HCL, 1 mM EDTA, pH 7.5) with or without 2% (v/v) Triton X-100 (Sigma-Aldrich, Saint Louis, Missouri, USA). Standard solutions were also prepared in 1xTE with or without 2% (v/v) Triton X-100 to account for any variation in fluorescence. The assay was performed according to the manufacturer's protocol. Samples were loaded on a black 96-well plate and analysed for fluorescence on a microplate reader (Tecan Infinite® 200 PRO) at an excitation of 485 nm and emission at 528 nm. Encapsulation efficiency was calculated between 80-100%.

[3] = tested on: expression of the luciferase saRNA; test: In vivo bioluminescent imaging after intramuscular injection of LNP-formulated luciferase saRNA; settings: 1 μg LNP-formulated luciferase saRNA intramuscularly, female SWISS mice
Procedure: (§1) Female SWISS mice (6 weeks old) were purchased from Janvier Laboratories (Paris, France) and kept in individually ventilated cages with access to food and water ad libitum. Mice were anesthetized with isoflurane (Zoetis, Louvain-La-Neuve, Belgium) (5% for induction and 2% for maintenance) and intramuscularly injected with a total of 1 μg in 100 μL Tris-HCL (50 μL per leg) LNP-formulated luciferase saRNA (for each group n=7). The expression of the luciferase induced bioluminescence was measured via non-invasive In vivo bioluminescent imaging (In vivo Imaging System (IVIS) Lumina III, Perkin Elmer, Waltham, Massachusetts, USA), 10 minutes after subcutaneous injection of […] of D-luciferin (GoldBio, Saint Louis, Missouri, USA, #LUCK-1G) were measured in day 0 (before injection), day 1, day 3, day 5, day 7, day 10, day 15 and day 20.

[4] = Weight evolution of the animals following administration of LNPs; format: in vivo; settings: female SWISS mice
Procedure: as §1

[5] = Day 1, 1 μg LNP-formulated saRNA intramuscularly
[6] = Day 3, 1 μg LNP-formulated saRNA intramuscularly
[7] = Day 5, 1 μg LNP-formulated saRNA intramuscularly
[8] = Day 7, 1 μg LNP-formulated saRNA intramuscularly
[9] = Day 10, 1 μg LNP-formulated saRNA intramuscularly
[10] = Day 15, 1 μg LNP-formulated saRNA intramuscularly
[11] = Day 20, 1 μg LNP-formulated saRNA intramuscularly

Compound	Zetapotential (mV) [1] [mV]	Polydispersity Index (PI) [1]	Z-average (nm) [1] [nm]	Encapsulation (%) [2] [%]	Bioluminescence expression of LNPs ([3]; Day 1)	Bioluminescence expression of LNPs ([3]; Day 3)	Bioluminescence expression of LNPs ([3]; Day 5)	Bioluminescence expression of LNPs ([3]; Day 7)	Bioluminescence expression of LNPs ([3]; Day 10)	Bioluminescence expression of LNPs ([3]; Day 15)	Bioluminescence expression of LNPs ([3]; Day 20)	Weight ([4]; Day 0) [g]	Weight [4, 5] [g]	Weight [4, 6] [g]	Weight [4, 7] [g]	Weight [4, 8] [g]	Weight [4, 9] [g]	Weight [4, 10] [g]	Weight [4, 11] [g]
CCCCCCCCCCCCCCOC(=O)CCN(CCC(=O)OCCCCCCCCCCCCCC)CCN(CCC(=O)OCCCCCCCCCCCCCC)CCN1CCN(CCN(CCC(=O)OCCCCCCCCCCCCCC)CCC(=O)OCCCCCCCCCCCCCC)CC1 [Comparator 2 (C2), reference compound]	8.70	0.16	96.53	97.61	2.19E+07	8.21E+07	2.21E+08	1.62E+08	2.27E+07	2.04E+05	9.42E+04	27.80	27.00	27.70	27.44	27.84	27.31	29.54	29.79
CCCCCCC(CCCC)C(=O)OCCN(CCOC(=O)C(CCCC)CCCCCC)CCN(CCOC(=O)C(CCCC)CCCCCC)CCN1CCN(CCN(CCOC(=O)C(CCCC)CCCCCC)CCOC(=O)C(CCCC)CCCCCC)CC1 (stereo not drawn) [Compound 9-26, ((2-(4-(2-((2-(bis(2-((2-butyloctanoyl)oxy)ethyl)amino)ethyl) (2-((2-butyloctanoyl)oxy)ethyl)amino)ethyl)piperazin-1-yl)ethyl)azanediyl) bis(ethane-2,1-diyl)bis(2-butyloctanoate)]	−18.67	0.28	100.07	92.78	8.16E+06	2.76E+08	6.92E+08	6.31E+08	2.23E+07	4.91E+05	7.78E+04	27.91	27.31	28.51	28.46	28.44	29.13	30.50	32.44
CCCCCCC(CCCC)C(=O)OCCCCN(CCCCOC(=O)C(CCCC)CCCCCC)CCN(CCCCOC(=O)C(CCCC)CCCCCC)CCN1CCN(CCN(CCCCOC(=O)C(CCCC)CCCCCC)CCCCOC(=O)C(CCCC)CCCCCC)CC1 (stereo not drawn) [Compound 9-27, ((2-(4-(2-((2-(bis(4-((2-butyloctanoyl)oxy)butyl)amino)ethyl) (4-((2-butyloctanoyl)oxy)butyl)amino)ethyl)piperazin-1-yl)ethyl)azanediyl) bis(butane-4,1-diyl)bis(2-butyloctanoate)]	−10.65	0.18	65.27	93.93	4.09E+07	1.51E+09	1.35E+09	9.33E+08	2.88E+06	2.77E+05	1.87E+05	27.51	26.21	28.67	28.56	29.01	29.61	30.77	31.87
